Experimental findings from paper PMC11801377, “A uniquely efficacious type of CFTR corrector with complementary mode of action” (Science Advances, 2024) are described below.

The assay has as its target F508del-CFTR (Homo sapiens, UniProt P13569, DEL508-508). As to the kind of experiment: SILAC heavy pulse light-chase assay: ER CFTR folding efficiency in CFBE41o- cells. Type of assay: cell-based. The note with it: 2.5-hour chase; 2 μM IDOR-3, 2 μM IDOR-4, 10 μM TEZ, 10 μM ELX, TEZ + ELX 10 μM each. How it is done: Stable isotope labeling using amino acids in cell culture (SILAC technology, Thermo Fisher Scientific) was used. For pulse-chase assays to determine CFTR folding efficiency at the ER, CFBE-F508del-CFTR or CFBE-WT-CFTR were seeded at 100,000 cells per well into a FNC-coated 24-well plate in CFBE growth medium and, the next day, incubated for 24 hours with “SILAC light medium” [arginine- and lysine-free RPMI 1640 #A33823, 84 mg/liter light L-arginine, # 89989, 146 mg/liter light L-lysine, #88429 and 20 mg/liter L-proline, # 89989 (to prevent a potential arginine-proline conversion)] supplemented with 10% dialyzed FBS. Cells were then washed once in PBS (37°C) and incubated for 1 hour with “starvation medium” (arginine-, lysine-free RPMI 1640, and 1% HSA) containing the indicated fixed concentrations of correctors. A 30-min metabolic pulse labeling was then performed by replacing the medium with “SILAC heavy medium” [arginine- and lysine-free RPMI 1640, L-proline (20 mg/liter), heavy L-arginine (84 mg/liter; ^13C6^15N4, #89990), heavy L-lysine (146 mg/liter; ^13C6^15N2, #88209), and 1% HSA] containing correctors. Cells were then washed with PBS and chased in SILAC light medium supplemented with 1% HSA and correctors. This medium was kept for 1, 2.5, 4, and 6 h of chase time followed by cell lysis in RIPA buffer as described above. […]

Sequence of F508del-CFTR (P13569 with tags, fused parts or gaps DEL508-508): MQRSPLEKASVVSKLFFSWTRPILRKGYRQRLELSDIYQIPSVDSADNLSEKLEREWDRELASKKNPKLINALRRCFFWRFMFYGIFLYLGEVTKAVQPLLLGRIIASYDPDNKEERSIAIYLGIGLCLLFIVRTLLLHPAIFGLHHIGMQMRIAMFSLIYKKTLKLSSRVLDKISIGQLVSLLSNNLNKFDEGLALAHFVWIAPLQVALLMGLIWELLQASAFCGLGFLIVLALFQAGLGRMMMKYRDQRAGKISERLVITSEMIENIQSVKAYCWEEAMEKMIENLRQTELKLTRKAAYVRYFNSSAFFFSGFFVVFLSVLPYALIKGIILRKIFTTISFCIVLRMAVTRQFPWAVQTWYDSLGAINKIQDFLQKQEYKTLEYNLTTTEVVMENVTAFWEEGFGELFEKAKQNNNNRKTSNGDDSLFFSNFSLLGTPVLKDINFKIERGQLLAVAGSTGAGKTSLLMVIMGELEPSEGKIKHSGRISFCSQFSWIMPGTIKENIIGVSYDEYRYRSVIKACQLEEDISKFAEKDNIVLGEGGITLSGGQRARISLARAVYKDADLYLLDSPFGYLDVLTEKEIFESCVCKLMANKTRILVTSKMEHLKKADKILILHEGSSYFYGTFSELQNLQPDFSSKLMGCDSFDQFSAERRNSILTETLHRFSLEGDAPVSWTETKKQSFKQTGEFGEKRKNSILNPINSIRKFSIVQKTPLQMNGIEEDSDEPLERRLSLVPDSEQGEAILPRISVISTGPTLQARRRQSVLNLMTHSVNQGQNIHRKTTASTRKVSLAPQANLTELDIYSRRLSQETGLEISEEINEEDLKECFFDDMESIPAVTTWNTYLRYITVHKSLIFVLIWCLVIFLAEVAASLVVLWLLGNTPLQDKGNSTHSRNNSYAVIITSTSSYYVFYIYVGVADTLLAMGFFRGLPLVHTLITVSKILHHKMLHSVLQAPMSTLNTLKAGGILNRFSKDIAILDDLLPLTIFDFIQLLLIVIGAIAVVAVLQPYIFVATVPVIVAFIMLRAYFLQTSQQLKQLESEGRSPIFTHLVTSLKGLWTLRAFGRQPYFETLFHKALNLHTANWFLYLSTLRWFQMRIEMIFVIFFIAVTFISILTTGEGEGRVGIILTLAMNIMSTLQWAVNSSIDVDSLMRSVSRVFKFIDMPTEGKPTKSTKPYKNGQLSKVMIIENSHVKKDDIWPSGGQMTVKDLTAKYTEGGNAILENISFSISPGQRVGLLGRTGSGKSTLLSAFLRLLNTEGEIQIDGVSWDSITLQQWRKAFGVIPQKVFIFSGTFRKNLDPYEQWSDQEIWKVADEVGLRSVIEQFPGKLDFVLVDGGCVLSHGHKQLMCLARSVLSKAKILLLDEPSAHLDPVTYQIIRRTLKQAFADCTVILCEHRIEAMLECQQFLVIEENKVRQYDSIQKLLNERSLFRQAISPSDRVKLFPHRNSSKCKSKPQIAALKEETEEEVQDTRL

`Cc1nn(C)cc1S(=O)(=O)NC(=O)c1ccc(-n2ccc(OCC(C)(C)C(F)(F)F)n2)nc1N1C[C@@H](C)CC1(C)C` [ELX, elexacaftor]: the “B-to-C conversion rate (folding efficiency)” value was determined as 6.7%. With `CC(C)(CO)c1cc2cc(NC(=O)C3(c4ccc5c(c4)OC(F)(F)O5)CC3)c(F)cc2n1C[C@@H](O)CO` [TEZ, tezacaftor] the figure was 2.4%.
